Assay results as given in patent publication US11767319B2, “Crystalline forms of a selective c-kit kinase inhibitor” (Third Harmonic Bio, Inc., priority 2020, dated 2023).

What was measured:
Assay type in all cases: physicochemical
[1] = Form investigation in buffered media; conditions: for XRPD Pattern / pH (24 h): 24 h at 25° C.
Description: To investigate the polymorphic landscape of compound 1 in buffered systems, 5×20 mg of Form A slurries and 5×20 mg of amorphous slurries (amorphous material prepared using the method described in the above hydration mapping experiments) were prepared by adding 1 mL of buffer to each vial and the resulting slurries were agitated for 24 h at 25° C. The pH was measured post-buffer addition and after 24 h agitation. After 24 h, aliquots of solid were isolated via centrifugal filtration and analysed by XRPD.

[2] = Hydration mapping starting with amorphous compound 1
Description: To establish the hydration map of compound 1, solutions with varying water activity (aw) were prepared and the aw was measured using a water activity meter. Table 13 below details the solvent systems investigated and their corresponding measured water activities.
To prepare amorphous material, 480 mg of Form A of compound 1 was weighed into a vial before being dissolved in 24 mL 1,4-dioxane. The resulting solution was then split evenly between 24 vials before being placed in the chamber of a freeze dryer at −50° C. to completely freeze the samples. The samples were then freeze dried overnight (approx. 18 h) and fluffy off-white solids were recovered. A small sub-sample of solid from one vial was analyzed by XRPD to confirm that amorphization had occurred. Using the other 23 vials of amorphous material, 1 mL of the solutions prepared above was added to each vial to prepare slurries. As before, where solutions were observed a brief manual agitation, an additional ˜10 to 20 mg of amorphous material was added to prepare a slurry. Additional solid was added to the 2-MeTHF, acetone/water (aw of 0.14 and 0.28), methanol/water (aw of 0.11) and acetonitrile/water (aw of 0.11) samples. All slurries were then agitated for 72 h at 25° C. After 72 h, aliquots of solid were isolated via centrifugal filtration and analyzed by XRPD.

[3] = Ethanol/hydrocarbon mixtures slurry study
Description: Using the methods described above for the Form A input and amorphous input experiments, 5×20 mg of Form A slurries and 5×20 mg of amorphous input slurries were prepared by adding 1 mL of solvent (see Table 16 below) to each vial and the resulting slurries were agitated for 24 h at 25° C. After 24 h, aliquots of solid were isolated via centrifugal filtration and analysed by XRPD.

XRPD Pattern ([1]; NaOH (0.2M)): Form C
XRPD Pattern ([1]; pH 1.2 (HCl—KCl)): HCl Salt Form
XRPD Pattern ([1]; pH 4.5 (acetate)): Form F
XRPD Pattern ([1]; pH 6.8 (phosphate)): Form C
XRPD Pattern ([1]; pH 8 (PBS)): Form H^B
pH (Post-Buffer Addition) ([1]; slurry in NaOH (0.2M)): 11.97
pH (24 h) ([1]; slurry in NaOH (0.2M)): 11.87
pH (Post-Buffer Addition) ([1]; slurry in pH 1.2 (HCl—KCl)): 1.21
pH (24 h) ([1]; slurry in pH 1.2 (HCl—KCl)): 1.21
pH (Post-Buffer Addition) ([1]; slurry in pH 4.5 (acetate)): 4.53
pH (24 h) ([1]; slurry in pH 4.5 (acetate)): 4.55
pH (Post-Buffer Addition) ([1]; slurry in pH 6.8 (phosphate)): 6.85
pH (24 h) ([1]; slurry in pH 6.8 (phosphate)): 6.87
pH (Post-Buffer Addition) ([1]; slurry in pH 8 (PBS)): 8.01
pH (24 h) ([1]; slurry in pH 8 (PBS)): 8.11
XRPD pattern observed, 72 h ([2]; 2-MeTHF, aw 0.0378, 25° C.): Forms A, H^A and D
XRPD pattern observed, 72 h ([2]; Acetone/Water, aw 0.1363, 25° C.): Form H^A
XRPD pattern observed, 72 h ([2]; Acetone/Water, aw 0.2621, 25° C.): Form H^A
XRPD pattern observed, 72 h ([2]; Acetone/Water, aw 0.5455, 25° C.): Form H^A
XRPD pattern observed, 72 h ([2]; Acetone/Water, aw 0.7082, 25° C.): Form H^A
XRPD pattern observed, 72 h ([2]; Acetone/Water, aw 0.9439, 25° C.): Form H^A and possibly Form C
XRPD pattern observed, 72 h ([2]; EtOH/Heptane, aw 0.0300, 25° C.): Form E
XRPD pattern observed, 72 h ([2]; EtOH/Water, aw 0.1580, 25° C.): Form H^A
XRPD pattern observed, 72 h ([2]; EtOH/Water, aw 0.3377, 25° C.): Form H^A
XRPD pattern observed, 72 h ([2]; EtOH/Water, aw 0.4986, 25° C.): Form H^A
XRPD pattern observed, 72 h ([2]; EtOH/Water, aw 0.7600, 25° C.): Form A and Form H^A and additional peaks
XRPD pattern observed, 72 h ([2]; EtOH/Water, aw 0.9005, 25° C.): Form A and Form H^A and additional peaks
XRPD pattern observed, 72 h ([2]; MeCN/Water, aw 0.1060, 25° C.): Form H^A
XRPD pattern observed, 72 h ([2]; MeCN/Water, aw 0.3664, 25° C.): Form H^A
XRPD pattern observed, 72 h ([2]; MeCN/Water, aw 0.5573, 25° C.): Form H^A
XRPD pattern observed, 72 h ([2]; MeCN/Water, aw 0.7300, 25° C.): Form H^A
XRPD pattern observed, 72 h ([2]; MeCN/Water, aw 0.8946, 25° C.): Form H^A
XRPD pattern observed, 72 h ([2]; MeOH/Water, aw 0.0963, 25° C.): Form H^A
XRPD pattern observed, 72 h ([2]; MeOH/Water, aw 0.3242, 25° C.): Form H
XRPD pattern observed, 72 h ([2]; MeOH/Water, aw 0.5145, 25° C.): Form H^A
XRPD pattern observed, 72 h ([2]; MeOH/Water, aw 0.6965, 25° C.): Form H^A
XRPD pattern observed, 72 h ([2]; MeOH/Water, aw 0.9294, 25° C.): Form C
XRPD pattern observed, 72 h ([2]; Water/2-MeTHF, aw 0.5286, 25° C.): Form H^A
XRPD pattern observed ([3]; EtOH/Cyclohexane (50:50% v/v), aw 0.025, 24 h at 25° C.): Form E
XRPD pattern observed ([3]; EtOH/Dodecane (50:50% v/v), aw 0.024, 24 h at 25° C.): Form H^A
XRPD pattern observed ([3]; EtOH/Hexane (50:50% v/v), aw 0.018, 24 h at 25° C.): Form E
XRPD pattern observed ([3]; EtOH/Methylcyclohexane (50:50% v/v), aw 0.019, 24 h at 25° C.): Form E
XRPD pattern observed ([3]; EtOH/Octane (50:50% v/v), aw 0.019, 24 h at 25° C.): Form E
Compound: Cc1ccc(-c2noc([C@H]3C[C@@H]3F)n2)cc1NC(=O)c1cnc2ccccn12 [Amorphous Compound 1, N-(5-(5-((1R,2S)-2-fluorocyclopropyl)-1,2,4-oxadiazol-3-yl)-2-methylphenyl)imidazo[1,2-a]pyridine-3-carboxamide]
